According to paper PMC5353710, “Structural insights into the γ-lactamase activity and substrate enantioselectivity of an isochorismatase-like hydrolase from Microbacterium hydrocarbonoxydans” (Scientific Reports, 2017):

Experiments:
MhIHL (Mh33H4-5540) [1] = target: T1, MhIHL (Mh33H4-5540) (Microbacterium hydrocarbonoxydans, UniProt A0A0K0XHU0, C111A); conditions: inactive variant; crystal soaked in 500 mM ligand for 10 min; active site
MhIHL (Mh33H4-5540) [2] = target: T1, MhIHL (Mh33H4-5540); conditions: inactive variant; crystal soaked in 250 mM ligand for 1.5 h; active site

SMILES	X-ray crystal structure, 1.79 Å (MhIHL (Mh33H4-5540) [1])	X-ray crystal structure, 1.99 Å (MhIHL (Mh33H4-5540) [2])
O=C1N[C@@H]2C=C[C@H]1C2 [(+)-γ-lactam, 2-Azabicyclo[2.2.1]hept-5-en-3-one]	The final MhIHL–(+)-γ-lactam complex crystals were obtained by soaking the crystal	–
O=C1N[C@H]2C=C[C@@H]1C2 [(−)-γ-lactam, 2-Azabicyclo[2.2.1]hept-5-en-3-one]	–	The final crystals of MhIHL–(−)-γ-lactam complex were obtained by soaking the crystal
